pIC50: −log10 of the molar value.

Experiment [1] deals with Axl (Homo sapiens (Human), UniProt P30530). Description: TAM Enzymatic Assay (HTRF), phosphor-Axl. The format is biochemical. As to conditions: 5.1 nM phosphor-Axl, 60 min room temperature. On the procedure:
Autophosphorylation of Axl was carried out by incubating the recombinant Axl protein (Life Technologies, PV4275) in buffer containing 50 mM Tris, pH7.5, 0.2 mg/ml Axl, 5 mM ATP, 20 mM MgCl2 and 2 mM DTT at room temperature for 1 hour.
(§1) The kinase assay buffer contained 50 mM HEPES, pH7.5, 10 mM MgCl2, 1 mM EGTA, 0.01% NP-40 and 2 mM DTT. 0.1 ul test compounds dissolved in DMSO were transferred from compound plates to white 384-well assay plates (Greiner […] plates). […] 4 ul enzyme solution (or assay buffer for the enzyme blank) was added to the appropriate wells in each plate, and then 4 ul/well substrate solution was added to initiate the reaction. The plate was protected from light and incubated at room temperature for 60 min. […] The plate was incubated for 1 h at room temperature, and HTRF (homogenous time resolved fluorescence) signal was measured on a PHERAstar FS plate reader (BMG labtech). Percentage of inhibition was calculated for each concentration and IC50 value was generated from curve fitting with GraphPad Prism software.
In general terms: In TR-FRET formats the signal depends on donor and acceptor labels being close together.

Experiment [2] addresses c-Mer (Homo sapiens (Human), UniProt Q12866). Description: TAM Enzymatic Assay (HTRF), c-Mer. The following applies: 0.0625 nM c-Mer, 60 min room temperature. It counts as biochemical. On the procedure:
as §1

Experiment [3] has as its target Tyro3 (Homo sapiens (Human), UniProt Q06418). Description: TAM Enzymatic Assay (HTRF), Tyro3. It counts as biochemical. As to conditions: 0.366 nM Tyro3, 60 min room temperature. The protocol:
as §1

The test system of experiment [4] is NK cells. The following applies: Paolino et al., 2014; cited from earlier work.
Experiment [5] deals with tumor models with different histologies. As to conditions: Paolino et al., 2014; cited from earlier work.

Sequence of Axl (P30530 26-894): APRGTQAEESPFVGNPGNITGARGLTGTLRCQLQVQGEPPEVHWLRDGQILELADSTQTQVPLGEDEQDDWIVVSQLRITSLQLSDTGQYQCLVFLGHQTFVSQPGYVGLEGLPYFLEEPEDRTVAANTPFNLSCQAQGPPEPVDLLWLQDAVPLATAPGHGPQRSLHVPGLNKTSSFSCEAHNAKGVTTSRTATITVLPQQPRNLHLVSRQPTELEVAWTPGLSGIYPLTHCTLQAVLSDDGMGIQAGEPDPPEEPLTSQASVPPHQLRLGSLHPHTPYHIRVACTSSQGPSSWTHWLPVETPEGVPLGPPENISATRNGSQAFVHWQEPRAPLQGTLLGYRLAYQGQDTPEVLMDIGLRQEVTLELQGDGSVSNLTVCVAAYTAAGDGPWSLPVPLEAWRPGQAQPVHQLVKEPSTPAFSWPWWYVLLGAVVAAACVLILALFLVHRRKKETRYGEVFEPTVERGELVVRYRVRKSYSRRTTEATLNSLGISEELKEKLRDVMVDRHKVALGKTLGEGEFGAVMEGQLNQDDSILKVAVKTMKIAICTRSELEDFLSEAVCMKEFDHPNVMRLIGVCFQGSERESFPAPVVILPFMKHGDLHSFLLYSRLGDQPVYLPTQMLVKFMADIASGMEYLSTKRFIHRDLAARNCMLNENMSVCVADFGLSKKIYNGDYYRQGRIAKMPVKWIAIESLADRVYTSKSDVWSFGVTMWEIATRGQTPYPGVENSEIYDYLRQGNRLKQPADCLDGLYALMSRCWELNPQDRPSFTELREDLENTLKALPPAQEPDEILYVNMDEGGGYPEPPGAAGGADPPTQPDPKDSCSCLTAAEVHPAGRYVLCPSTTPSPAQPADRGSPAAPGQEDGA
Sequence of Tyro3 (Q06418 41-890): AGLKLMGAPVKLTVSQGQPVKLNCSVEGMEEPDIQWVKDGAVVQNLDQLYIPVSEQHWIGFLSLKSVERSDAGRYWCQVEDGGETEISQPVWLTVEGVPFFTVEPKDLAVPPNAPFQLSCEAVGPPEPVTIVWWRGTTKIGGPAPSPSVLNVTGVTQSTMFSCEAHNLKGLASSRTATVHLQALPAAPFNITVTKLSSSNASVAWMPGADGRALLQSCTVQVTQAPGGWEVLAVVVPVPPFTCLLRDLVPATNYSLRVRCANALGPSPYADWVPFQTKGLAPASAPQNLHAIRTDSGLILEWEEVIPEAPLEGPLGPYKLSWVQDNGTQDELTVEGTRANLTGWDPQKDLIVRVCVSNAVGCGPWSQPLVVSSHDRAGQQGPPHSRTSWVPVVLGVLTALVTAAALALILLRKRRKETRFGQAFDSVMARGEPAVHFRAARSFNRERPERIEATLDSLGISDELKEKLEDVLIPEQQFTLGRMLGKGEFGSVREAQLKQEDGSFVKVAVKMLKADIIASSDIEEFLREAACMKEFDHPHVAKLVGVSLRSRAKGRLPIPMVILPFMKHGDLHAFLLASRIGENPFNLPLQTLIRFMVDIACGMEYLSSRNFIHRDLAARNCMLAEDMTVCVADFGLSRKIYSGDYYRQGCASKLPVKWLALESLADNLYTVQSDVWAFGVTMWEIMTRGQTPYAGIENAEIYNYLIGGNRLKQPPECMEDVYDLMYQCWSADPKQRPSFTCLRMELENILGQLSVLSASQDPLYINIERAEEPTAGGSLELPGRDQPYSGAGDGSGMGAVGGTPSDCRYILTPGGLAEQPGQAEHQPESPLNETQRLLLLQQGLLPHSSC
Sequence of c-Mer (Q12866 21-999): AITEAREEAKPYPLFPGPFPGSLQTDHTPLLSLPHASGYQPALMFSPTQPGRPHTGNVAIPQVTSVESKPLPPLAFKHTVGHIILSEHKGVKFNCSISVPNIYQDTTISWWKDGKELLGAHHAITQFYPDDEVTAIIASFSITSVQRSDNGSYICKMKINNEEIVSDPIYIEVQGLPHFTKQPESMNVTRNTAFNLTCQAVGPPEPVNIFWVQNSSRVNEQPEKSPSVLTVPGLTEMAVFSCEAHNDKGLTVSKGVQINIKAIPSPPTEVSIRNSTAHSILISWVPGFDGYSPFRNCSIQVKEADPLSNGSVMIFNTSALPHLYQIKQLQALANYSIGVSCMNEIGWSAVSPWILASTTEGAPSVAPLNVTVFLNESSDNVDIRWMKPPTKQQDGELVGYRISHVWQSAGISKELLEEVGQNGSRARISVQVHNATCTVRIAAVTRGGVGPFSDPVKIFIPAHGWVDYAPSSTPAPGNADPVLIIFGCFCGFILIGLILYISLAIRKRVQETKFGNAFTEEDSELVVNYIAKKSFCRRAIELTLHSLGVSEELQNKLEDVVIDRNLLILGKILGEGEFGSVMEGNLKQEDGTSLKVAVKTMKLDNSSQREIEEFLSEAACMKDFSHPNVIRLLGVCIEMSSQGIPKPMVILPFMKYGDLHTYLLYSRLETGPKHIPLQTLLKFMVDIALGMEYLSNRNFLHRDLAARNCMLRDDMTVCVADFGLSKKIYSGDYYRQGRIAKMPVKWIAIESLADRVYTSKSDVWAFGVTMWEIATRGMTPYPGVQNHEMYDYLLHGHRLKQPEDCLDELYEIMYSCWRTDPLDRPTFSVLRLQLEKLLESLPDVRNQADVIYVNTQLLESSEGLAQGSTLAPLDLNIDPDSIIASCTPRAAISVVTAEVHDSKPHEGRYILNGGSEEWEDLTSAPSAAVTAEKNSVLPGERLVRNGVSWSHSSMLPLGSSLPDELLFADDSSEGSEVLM

As usually defined, the pIC50 is the IC50 on a negative log10 scale, so that one unit is a factor of ten. For the compound `CC(C)n1cc(C(=O)Nc2ccc(-c3cc(C4CCN(C5CCN(C)C5=O)CC4)n4ncnc(N)c34)cc2)c(=O)n(-c2ccccc2)c1=O` (racemic) [Example 82, N-(4-(4-Amino-7-(1-(1-methyl-2-oxopyrrolidin-3-yl)piperidin-4-yl)pyrrolo[1,2-f][1,2,4]triazin-5-yl)phenyl)-1-isopropyl-2,4-dioxo-3-phenyl-1,2,3,4-tetrahydropyrimidine-5-carboxamide], the negative logarithm of the IC50 (pIC50) in experiment [1] is more than 8.30; in experiment [2], not below 8.30.

On to `CC(=O)c1cc(C(=O)Nc2ccc(-c3cc(C4CCN(C(=O)C(C)C)CC4)n4ncnc(N)c34)cc2)c(=O)n(-c2ccccc2)c1C` [Example 112, 5-Acetyl-N-(4-(4-amino-7-(1-isobutyrylpiperidin-4-yl)pyrrolo[1,2-f][1,2,4]triazin-5-yl)phenyl)-6-methyl-2-oxo-1-phenyl-1,2-dihydropyridine-3-carboxamide], for which the pIC50 in experiment [1] was more than 8.30; in experiment [2], not below 8.30; in experiment [3], 7.00 to 8.00.

Take `CCOc1cn(-c2ccc(F)cc2C)nc1C(=O)Nc1ccc(Oc2ccnc3cc(OC)c(OC)cc23)c(F)c1` [LDC1267]: the “activation of NK cells” value in experiment [4] is “activates NK cells”. For the same compound, in experiment [5], the “metastasis in tumor models” value was “blocks metastasis”.

For the compound `CC(O)Cn1cc(C(=O)Nc2ccc(-c3cc(C4CCN(C(=O)C5CC5)CC4)n4ncnc(N)c34)cc2)c(=O)n(-c2ccccc2)c1=O` (racemic) [Example 80, N-(4-(4-Amino-7-(1-(cyclopropanecarbonyl)piperidin-4-yl)pyrrolo[1,2-f][1,2,4]triazin-5-yl)phenyl)-1-(2-hydroxypropyl)-2,4-dioxo-3-phenyl-1,2,3,4-tetrahydropyrimidine-5-carboxamide], the pIC50 is more than 8.30 in experiment [1] and less than 7.00 in experiment [3].

The values above are taken from US10442810B2, “Pyrrolotriazine compounds as TAM inhibitors” (Incyte Corporation, priority 2016, dated 2019).
